Measurements reported in patent US20090170768A1, “WATER-SOLUBLE CARBON NANOTUBE COMPOSITIONS FOR DRUG DELIVERY AND MEDICINAL APPLICATIONS” (William Marsh Rice University, priority 2007, published 2009).
Like-named read-outs stand apart in the source and are kept apart here.

Tests used:
[1] = Paclitaxel solubilization in water with or without PEG-functionalized carbon nanotubes
Tu167 cells = test: MTT assay, in vitro cell killing in Tu167 cells; type: cell-based
Protocol: (§1) For the analyses, the analyses presented in FIGS. 1 and 2, the paclitaxel was dissolved in either acidic MeOH (FIG. 1) or neutral MeOH (FIG. 2) prior to association with the PEG-functionalized SWNTs. The MeOH was removed from the compositions by evaporation following sequestration of the paclitaxel by the PEG-functionalized SWNT matrix. MeOH removal was performed prior to MTT analysis. […] The control paclitaxel was dissolved in a cremaphor vehicle.

UMSCC1 cells = test: MTT assay, in vitro cell killing in UMSCC1 cells; type: cell-based; conditions: Homo sapiens
Protocol: as §1
For the analysis presented in FIG. 4, the paclitaxel was dissolved in EtOH prior to association with the PEG-functionalized SWNTs. The EtOH was removed from the compositions by evaporation following sequestration of the paclitaxel by the PEG-functionalized SWNT matrix. EtOH removal was performed prior to MTT analysis.

cells = test: Intracellular delivery of FITC (cell fluorescence); type: cell-based; conditions: provided to cells
From the text: In certain embodiments, the compositions provide intracellular delivery of the at least one type of payload molecule. The intracellular delivery may occur in vitro or in vivo. […] Thus, the compositions provide intracellular delivery of the at least one type of payload molecule.

| Molecule | precipitation from solution ([1]; 1 mg paclitaxel in 70 μL ethanol added to 1 mL of a solution containing PEG-functionalized carbon nanotubes) | precipitation from solution ([1]; 1 mg paclitaxel in 70 μL ethanol added to 1 mL of water) | IC50 (Tu167 cells; Tu167 cells, MTT, vehicle per row (cremaphor or aqueous), R^2 in parentheses, read-out: Tu167 IC50 (nm): R^2) [pM] | IC50 (Tu167 cells; dissolved in cremaphor vehicle (FIG. 3), read-out: IC50 in Tu167 cells) [pM] | IC50 (UMSCC1 cells; UMSCC1, cremaphor vehicle (FIG. 5), read-out: IC50 in UMSCC1 cells) [pM] | IC50 (UMSCC1 cells; UMSCC1 cells, MTT, vehicle per row (cremaphor or aqueous), R^2 in parentheses, read-out: UMSCCI IC50 (nm): R^2) [pM] | intracellular fluorescence (cells) |
| --- | --- | --- | --- | --- | --- | --- | --- |
| CC(=O)O[C@H]1C(=O)[C@@]2(C)[C@H]([C@H](OC(=O)c3ccccc3)[C@]3(O)C[C@H](OC(=O)[C@H](O)[C@@H](NC(=O)c4ccccc4)c4ccccc4)C(C)=C1C3(C)C)[C@]1(OC(C)=O)CO[C@@H]1C[C@@H]2O [PACLITAXEL, paclitaxel] | no paclitaxel precipitates from solution | immediately precipitates from solution | 620 | 620 | 260 | 260 |  |
| fluorescein isothiocyanate [FITC] |  |  |  |  |  |  | no intracellular fluorescence was observed |
